Measured values: patent EP4707280A1, “1,4-CINEOLE DERIVATIVE AND INTERMEDIATE THEREOF, HERBICIDE CONTAINING SAID DERIVATIVE AS ACTIVE INGREDIENT, METHOD FOR USING HERBICIDE, AND METHOD FOR PREPARING AGROCHEMICAL COMPOSITION” (HOKKO CHEMICAL INDUSTRY CO., LTD., priority 2023, dated 2024)

Experiments:
Assay type in all cases: in vivo
[1] = test system: Monochoria vaginalis; test: Test Example 1: herbicidal effect test by soil application in paddy rice; details: Pontederia vaginalis, soil, 336 h; 120 g active ingredient per 10 ares; applied immediately after sowing, flooded pots; 14 days after application; read-out: weed inhibition rate
Outline: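 Inhibition rate (%) read 14 days after treatment, duplicate pots. Water-diluted emulsifiable concentrate was applied by dropper at 120 g active ingredient/10 ares right after sowing. Seeds (30 per species, 0–1 cm deep) went into puddled paddy soil kept flooded at about 3 cm in a greenhouse.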

[2] = test system: Digitaria ciliaris; test: Test Example 7: herbicidal effect test by soil application in upland field (low dose); details: Digitaria ciliaris, 7.5 g per 10 ares, sprayed one day after sowing, 14 days after application, read-out: weed inhibition rate
Outline: (§1)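 Low-dose soil treatment at 7.5 g a.i. per 10 a, applied as a diluted emulsifiable concentrate sprayed onto the soil surface one day after sowing in upland alluvial loam. Duplicate pots; percent weed inhibition is read 14 days after application.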

[3] = test system: Echinochloa crus-galli; test: as above; details: Echinochloa crus-galli, 7.5 g per 10 ares, sprayed one day after sowing, 14 days after application, read-out: weed inhibition rate
Outline: as §1

[4] = test system: Chenopodium album; test: Test Example 3: herbicidal effect test by soil application in upland field; details: 120 g per 10 ares, sprayed one day after sowing, 14 days after application, read-out: weed inhibition rate
Outline: (§2)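 Weed inhibition (%) was assessed 14 days after treatment, in duplicate per concentration group. Seeds had been mixed into the upper 1 cm of upland alluvial loam, and the soil surface was sprayed one day later with the diluted emulsifiable concentrate at 120 g active ingredient per 10 ares.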

[5] = test system: Scirpus juncoides; test: Test Example 1: herbicidal effect test by soil application in paddy rice; details: Schoenoplectiella juncoides, soil, 336 h; 120 g active ingredient per 10 ares; applied immediately after sowing, flooded pots; 14 days after application; read-out: weed inhibition rate
Outline: (§3)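 Flooded-pot paddy assay: sow at 0–1 cm, flood to about 3 cm, then apply diluted emulsifiable concentrate by dropper, 120 g a.i. per 10 ares; greenhouse-grown.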

[6] = test system: Echinochloa crus-galli var. formosensis; test: as above; details: Echinochloa crus-galli, soil, 336 h; 120 g active ingredient per 10 ares; applied immediately after sowing, flooded pots; 14 days after application; read-out: weed inhibition rate
Outline: as §3

[7] = test system: Echinochloa crus-galli var. formosensis; test: Test Example 5: herbicidal effect test by soil application in paddy rice (low dose); details: Echinochloa crus-galli, soil, 336 h; 7.5 g per 10 ares; applied immediately after sowing, flooded pots; 14 days after application; read-out: weed inhibition rate
Outline: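 Pots of puddled, fertilized paddy soil receive 30 seeds per species at 0–1 cm depth and are flooded to about 3 cm. The diluted emulsifiable concentrate is then dropped onto the water, delivering 7.5 g active ingredient per 10 ares. Greenhouse grown; herbicidal effect scored 14 days later, two replicates.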

[8] = test system: Digitaria ciliaris; test: Test Example 8: herbicidal effect test by stem and leaf treatment in upland field (low dose); details: Digitaria ciliaris; 7.5 g per 10 ares; sprayed seven days after sowing, upland soil; 14 days after application; read-out: weed inhibition rate
[9] = test system: Monochoria vaginalis; test: Test Example 6: herbicidal effect test by application during growth period of paddy rice (low dose); details: Pontederia vaginalis; 7.5 g per 10 ares; applied seven days after sowing, flooded pots; 14 days after application; read-out: weed inhibition rate
Outline: (§4)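 Emulsifiable concentrate, water-diluted, dropped onto flooded paddy pots 7 days post-sowing at 7.5 g active ingredient/10 a. Greenhouse-grown weeds; percent inhibition scored at day 14 after treatment.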

[10] = test system: Scirpus juncoides; test: as above; details: Schoenoplectiella juncoides; 7.5 g per 10 ares; applied seven days after sowing, flooded pots; 14 days after application; read-out: weed inhibition rate
Outline: as §4

[11] = test system: Amaranthus viridis; test: Test Example 3: herbicidal effect test by soil application in upland field; details: Amaranthus viridis, 120 g per 10 ares, sprayed one day after sowing, 14 days after application, read-out: weed inhibition rate
Outline: as §2

CC(C)[C@]12C[C@@H](OCc3ccccc3F)[C@](C)(C[C@@H]1Br)O2 [1-19, (1S,2R,4R,5S)-5-bromo-2-[(2-fluorophenyl)methoxy]-1-methyl-4-isopropyl-7-oxabicyclo[2.2.1]heptane]
≥ 80%: pest or weed control at 1200 g/ha [1] | inhibition at 75 g/ha [2] | inhibition at 75 g/ha [3] | inhibition at 1200 g/ha [4] | pest or weed control at 1200 g/ha [5] | pest or weed control at 1200 g/ha [6] | inhibition at 75 g/ha [7] | inhibition at 75 g/ha [8]

CC(C)[C@]12C[C@@H](OCc3c(F)cccc3F)[C@](C)(CC1C)O2 (stereo partly drawn) [1-111, (1S,2R,4R)-2-((2,6-difluorobenzyl)oxy)-4-isopropyl-1,5-dimethyl-7-oxabicyclo[2.2.1]heptane]
≥ 80%: pest or weed control at 1200 g/ha [1] | inhibition at 75 g/ha [2] | inhibition at 75 g/ha [3] | inhibition at 1200 g/ha [4] | pest or weed control at 1200 g/ha [5] | pest or weed control at 1200 g/ha [6] | inhibition at 75 g/ha [7] | inhibition at 75 g/ha [8]

CCC1C[C@]2(C)O[C@@]1(C(C)C)C[C@H]2OCc1ccccc1C (stereo partly drawn) [1-123, (1R,4S,5R)-2-ethyl-1-isopropyl-4-methyl-5-((2-methylbenzyl)oxy)-7-oxabicyclo[2.2.1]heptane]
≥ 80%: pest or weed control at 1200 g/ha [1] | inhibition at 75 g/ha [2] | inhibition at 1200 g/ha [4] | pest or weed control at 1200 g/ha [6] | inhibition at 75 g/ha [7] | inhibition at 75 g/ha [8]

CCC1C[C@]2(C)O[C@@]1(C(C)C)C[C@H]2OCc1ccccc1F (stereo partly drawn) [1-126, (1R,4S,5R)-2-ethyl-5-[(2-fluorobenzyl)oxy]-1-isopropyl-4-methyl-7-oxabicyclo[2.2.1]heptane]
≥ 80%: pest or weed control at 1200 g/ha [1] | inhibition at 75 g/ha [2] | inhibition at 75 g/ha [3] | inhibition at 1200 g/ha [4] | pest or weed control at 1200 g/ha [5] | pest or weed control at 1200 g/ha [6] | inhibition at 75 g/ha [7] | inhibition at 75 g/ha [8]

CC(C)[C@]12C[C@@H](OCc3ccccc3F)[C@](C)(C[C@@H]1OCc1ccccc1F)O2 [1-603, (1S,2R,4R,5S)-2,5-bis[(2-fluorophenyl)methoxy]-1-methyl-4-isopropyl-7-oxabicyclo[2.2.1]heptane]
≥ 80%: inhibition at 75 g/ha [9] | pest or weed control at 1200 g/ha [1] | inhibition at 1200 g/ha [4] | pest or weed control at 1200 g/ha [5] | pest or weed control at 1200 g/ha [6] | inhibition at 75 g/ha [7]

CC(C)[C@]12C[C@@H](OCc3c(F)cccc3Br)[C@](C)(CC1=O)O2 [2-355, (1R,4S,5R)-5-((2-bromo-6-fluorobenzyl)oxy)-1-isopropyl-4-methyl-7-oxabicyclo[2.2.1]heptan-2-one]
≥ 80%: inhibition at 75 g/ha [10] | inhibition at 75 g/ha [9] | pest or weed control at 1200 g/ha [1] | inhibition at 75 g/ha [2] | inhibition at 75 g/ha [3] | pest or weed control at 1200 g/ha [5] | pest or weed control at 1200 g/ha [6] | inhibition at 75 g/ha [7] | inhibition at 75 g/ha [8]

CC(C)[C@]12C=C[C@](C)(O1)[C@H](OCc1ccccc1)C2 [3-1, (1R,4S,5R)-4-methyl-5-phenylmethoxy-1-isopropyl-7-oxabicyclo[2.2.1]hept-2-ene]
≥ 80%: inhibition at 75 g/ha [10] | inhibition at 75 g/ha [9] | pest or weed control at 1200 g/ha [1] | inhibition at 75 g/ha [2] | inhibition at 75 g/ha [3] | pest or weed control at 1200 g/ha [5] | pest or weed control at 1200 g/ha [6] | inhibition at 75 g/ha [7] | inhibition at 75 g/ha [8]

Cc1ccccc1CO[C@@H]1C[C@@]2(C(C)C)C=C[C@]1(C)O2 [3-2, (1R,4S,5R)-4-methyl-5-[(2-methylphenyl)methoxy]-1-isopropyl-7-oxabicyclo[2.2.1]hept-2-ene]
≥ 80%: inhibition at 75 g/ha [10] | inhibition at 75 g/ha [9] | pest or weed control at 1200 g/ha [1] | inhibition at 75 g/ha [2] | inhibition at 75 g/ha [3] | inhibition at 1200 g/ha [11] | pest or weed control at 1200 g/ha [5] | pest or weed control at 1200 g/ha [6] | inhibition at 75 g/ha [7]
